# Key:
# rats = conditions: Priewe et al., DAS 1,129,260/1962; cited from earlier work
# dogs = conditions: Pfeiffer et al., DOS 2,118,219/1972; cited from earlier work
# man = conditions: Pfeiffer et al., DOS 2,118,219/1972; cited from earlier work
# [1] = test system: Swiss Albino mice (Charles River); experiment: Acute Intravenous Toxicity Studies in Mice (LD50); assay type: in vivo; conditions: lateral tail vein, 1 ml/min, solutions containing 28.27% of iodine, seven day observation
# Method: (§1) The techniques utilized are outlined below.
# I. Acute Intravenous Toxicity Studies in Mice
# Swiss Albino mice (Charles River) were dosed in the lateral tail vein with solutions of the iodinated compound containing 28.27% of iodine, injected at the rate of 1 ml/min. […] The LD50 values were calculated by the method of Litchfield and Wilcoxon (J. of Pharmac. and Exptl. Therap. 96:99-113, 1949).
# in vivo [2] = conditions: mouse, intracerebral, fixed volumes of various concentrations, seven day observation, meglumine salt, read-out: LD50 of Meglumine Salt, Intracerebral (Mice)
# Text: as §1
# II. Intracerebral Toxicity in Mice
# Swiss Albino mice (Charles River) were used. […] The animals were observed immediately after injections and daily throughout a seven day observation period.
# in vivo [3] = conditions: rat, intracisternal, two day observation, meglumine salt, read-out: LD50 of Meglumine Salt, Intracisternal (Rats)
# Text: as §1
# III. Intracisternal Toxicity in Rats
# Sprague Dawley (Carworth) rats were used. […] After dosing, the animals were housed individually, and observed for immediate reactions and periodically for a two day observation period.
# [4] = Solubility of the sodium salt in water; assay type: physicochemical
# Method: 2,4,6-Triiodo-5-methoxyacetamido-N-methylisophthalamic acid (6.005 g.) was dissolved in water with NaOH solution at pH 7.4 to form a supersaturated solution (7.0 ml.). When the solution was allowed to stand at room temperature overnight, crystallization occurred. The crystals were collected and dried.
# The sodium salt (2.71 g.) was then dissolved in water to form an 82% w/v solution (3.3 ml.). After the solution was allowed to stand at 24° overnight some crystallization occurred. The solution was stirred and the supernatant was taken (by centrifugation) for specific gravity measurement (sp. gr. 1.43) and for water determination (found, […] by Karl Fischer method). The solubility of the sodium salt in water was therefore determined to be about 70% w/v at 24°.
smiles,measurement,setting,value
"COCC(=O)Nc1c(I)c(NC(C)=O)c(I)c(C(=O)O)c1I [3-acetamido-5-methoxyacetamido-2,4,6-triiodobenzoic acid]",LD50 (i.v. in rats),rats,16000 mg/kg
same,circulatory disturbances in dogs,dogs,strong circulatory disturbances
same,circulatory disturbances in man,man,strong circulatory disturbances
"CNC(=O)c1c(I)c(NC(C)=O)c(I)c(C(=O)O)c1I [Iothalamic Acid, 5-acetamido-2,4,6-triiodo-N-methylisophthalamic acid, reference compound]","LD50 of Meglumine Salt, I.V. (Mice)",[1],5742 mg. contained iodine/kg. anima
"CNC(=O)c1c(I)c(NC(=O)COC)c(I)c(C(=O)O)c1I [meglumine 2,4,6-triiodo-5-methoxyacetamido-N-methylisophthalamate]","LD50 of Meglumine Salt, I.V. (Mice)",[1],6700 mg. contained iodine/kg. anima
same,LD50 at 168 h,in vivo [2],700 mg/kg
same,LD50 at 48 h,in vivo [3],40 mg/kg
CNC(=O)c1c(I)c(NC(=O)COC)c(I)c(C(=O)[O-])c1I.[Na+],solubility thermodynamic,"[4]; 24°, sodium salt, from specific gravity and Karl Fischer water of supernatant",~700 mg/mL
same,temperature dependence of solubility,[4]; sodium salt in water,highly temperature dependent

# Source: patent publication US3953497A, “2,4,6-Triiodo-5-methoxyacetamido-N-methylisophthalamic acid and salts, acyl halides and esters thereof” (Mallinckrodt, Inc., priority 1974, dated 1976)
